Results reported in ChEMBL document CHEMBL4477268, “2-(4-Fluorophenyl)-quinazolin-4(3H)-one as a novel tyrosinase inhibitor: Synthesis, inhibitory activity, and mechanism” (Bioorg Med Chem, 2016).
Calls of active or inactive are those of the source. No cut-off for these calls is given here.

Experiments:
[1] = Binding affinity to tyrosine assessed as decrease in maximum fluorescence emission intensity of tyrosine at 48 uM by spectrophotometric analysis; design: scale not given: the % may be the effect or the level left
[2] = molecular target: T1, Tyrosinase (Agaricus bisporus) (UniProt O42713); assay: Binding affinity to mushroom tyrosinase assessed as induction of red shift in spectra by fluorescence-spectrophotometric analysis
T1 sequence (whole entry): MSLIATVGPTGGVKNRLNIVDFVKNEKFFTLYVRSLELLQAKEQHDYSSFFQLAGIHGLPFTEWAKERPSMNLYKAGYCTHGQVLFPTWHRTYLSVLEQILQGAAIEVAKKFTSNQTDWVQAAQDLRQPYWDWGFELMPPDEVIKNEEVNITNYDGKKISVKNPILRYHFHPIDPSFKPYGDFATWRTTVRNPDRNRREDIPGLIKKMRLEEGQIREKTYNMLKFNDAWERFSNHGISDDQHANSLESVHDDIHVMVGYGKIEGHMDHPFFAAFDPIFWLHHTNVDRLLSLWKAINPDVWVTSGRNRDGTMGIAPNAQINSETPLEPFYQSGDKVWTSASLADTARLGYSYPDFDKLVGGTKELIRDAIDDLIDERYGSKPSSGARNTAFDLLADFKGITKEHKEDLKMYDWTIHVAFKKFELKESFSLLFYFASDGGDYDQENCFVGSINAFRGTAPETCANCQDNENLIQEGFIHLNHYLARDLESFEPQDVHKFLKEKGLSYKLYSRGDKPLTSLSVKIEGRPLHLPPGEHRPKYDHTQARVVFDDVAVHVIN

[3] = molecular target: T1, Tyrosinase (Agaricus bisporus); assay: (§1) Inhibition of diphenolase activity of mushroom tyrosinase using L-DOPA as substrate by spectrophotometric analysis
[4] = molecular target: T2, Tyrosinase (Agaricus bisporus, UniProt O42713); assay: as §1
T2 sequence (O42713 whole entry): T1 sequence (whole entry)

[5] = molecular target: T2, Tyrosinase; assay: Mixed-type reversible inhibition of diphenolase activity of mushroom tyrosinase using L-DOPA as substrate by Lineweaver-Burk double reciprocal-plot analysis
[6] = molecular target: T1, Tyrosinase (Agaricus bisporus); assay: Binding affinity to mushroom tyrosinase assessed as reduction in fluorescence intensity at 0 to 10 uM by fluorescence-spectrophotometric analysis; design: scale not given: the % may be the effect or the level left
[7] = Binding affinity to L-DOPA assessed as decrease in maximum fluorescence emission intensity of L-DOPA at 48 uM by spectrophotometric analysis; design: scale not given: the % may be the effect or the level left
[8] = molecular target: T2, Tyrosinase; assay: Mixed-type reversible inhibition of diphenolase activity of mushroom tyrosinase assessed as enzyme-substrate complex using L-DOPA as substrate by Lineweaver-Burk double reciprocal plot analysis
[9] = molecular target: T1, Tyrosinase (Agaricus bisporus); assay: Binding affinity to mushroom tyrosinase assessed as reduction in fluorescence intensity by spectrophotometric analysis

Oc1nc(-c2ccc(F)cc2)nc2ccccc12
Activity [1]: 53.1%
Activity [2]: Active
inhibition [3]: Dose-dependent effect
IC50 [4]: 120 µM
Ki [5]: 703 µM
Activity [6]: 77.2%
Activity [7]: 44.8%
Ki [8]: 222 µM
Activity [9]: Dose-dependent effect
